SMILES strings stand for the structures.

Assay [1] deals with Suncus murinus. The assay can be described thus: Gastric motility in postprandial period, sham-operated vs vagotomized (Example 2). In kind it is in vivo. The procedure:
Each of Suncus motilin (Scrum Inc., Tokyo, Japan) and human ghrelin (Asubio Pharma Co., Ltd., Hyogo, Japan) were dissolved in PBS containing 0.1% bovine serum albumin. Suncus murinus (male, outbred KAT strain, 7 to 15 weeks old, 60 to 100 g) was used for the experiment. Each animal was bred in a plastic cage provided with an empty can as a nest box under the following conditions: temperature at 23±2° C., illumination between 8:00 and 20:00, and free intake of commercial trout feed (SP, Nippon Formula Feed Mfg Co., Ltd., Yokohama, Japan). After 3 hours of fasting, Suncus murinus was anesthetized by an intraperitoneal injection of pentobarbital sodium (50 mg/kg). Through a midline incision, the stomach was exposed outside the body, and a force transducer was fixed via suture in the circular muscle direction of the body of stomach. The wire extending from the force transducer was inserted through the abdominal wall, passed under the skin, and exposed at the back of the neck. Thereafter, truncal vagotomy was performed. A lower portion of the esophagus was exposed, both branches of the vagus nerve were isolated, and about 3 mm of the vagus nerve was excised above the hepatic branch and the celiac branch. For sham-operated Suncus murinus, the vagus nerve was exposed, but not excised. An intravenous catheter was inserted in the right jugular, and extracorporeally fixed to the back. The catheter was filled with heparinized saline (100 units/mL) to prevent clotting. From 2 days after the operation, the gastric motility was recorded. 1 g of feed was given to the Suncus murinus during phase I to observe postprandial contractions. Motilin was continuously injected at 50 ng/kg/min over 10 minutes 20 minutes after completion of intake of feed. Amplified analog signals were converted into digital signals by an analog-to-digital converter (ADC-20, Pico Technology Ltd, St Neots, UK), and the digital signals were recorded on a computer. […] Gastric motility was quantitated using a motility index (MI). A motility index (MI) based on a drug was calculated using the following equation. […]

For assay [2], the system named is Suncus murinus. The experiment in a line: Postprandial motility by co-administration of ghrelin and motilin, ΔMI (Example 3). In kind it is in vivo. The protocol:
Each of Suncus motilin (Scrum Inc., Tokyo, Japan) and human ghrelin (Asubio Pharma Co., Ltd., Hyogo, Japan) was dissolved in PBS containing 0.1% bovine serum albumin.
Suncus murinus (male, outbred KAT strain, 7 to 39 weeks old, 56 to 91 g) was used for the experiment. The Each animal was bred in a plastic cage provided with an empty can as a nest box under the following conditions: temperature at 23±2° C., illumination between 8:00 and 20:00, and free intake of commercial trout feed (SP, Nippon Formula Feed Mfg Co., Ltd., Yokohama, Japan).
After 3 hours of fasting, Suncus murinus was anesthetized by an intraperitoneal injection of pentobarbital sodium (50 mg/kg). Through a midline incision, the stomach was exposed outside the body, and a force transducer was fixed via suture in the circular muscle direction of the body of stomach. The wire extending from the force transducer was inserted through the abdominal wall, passed under the skin, and exposed at the back of the neck.
An intravenous catheter was inserted in the right jugular, and extracorporeally fixed to the back. The catheter was filled with heparinized saline (100 units/mL) to prevent clotting.
Each of the operated Suncus murinus was allowed to recover for several days.
Drug administration and measurement of gastric motility were performed in the conscious, free-moving state without anesthesia.
2 g of feed was given to each Suncus murinus fastened (for 8 to 10 hours) for 10 minutes. After the intake of feed for 10 minutes, ghrelin (50, 1,000, or 3,000 ng/kg), motilin (300, 500, 1,000, or 3,000 ng/kg), or a mixed solution of ghrelin (15 or 50 ng/kg) and motilin (100, 200, or 300 ng/kg) was intravenously administered through a jugular vein catheter rapidly.
Amplified analog signals were converted into digital signals by an analog-to-digital converter (ADC-20, Pico Technology Ltd, St Neots, UK), and the digital signals were recorded on a computer.
Phase III contractions of MMC in conscious Suncus murinus were defined on the basis of those in dogs and humans (that is, clustered contractions with an amplitude of 8 g or more that lasts for 5 minutes or more).
Gastric motility was quantitated using a motility index (ΔMI). A motility index (ΔMI) based on a drug was calculated using the following equation. ΔMI (%)=(A−C)/B×100 A: AUC of contractions for 10 minutes during which the drug was administered B: AUC of 10-minute spontaneous phase III contractions appeared before administration of the drug C: (AUC of contractions appeared for 5 minutes between 5 and 10 minutes after the intake of feed)×2 (2) Results (FIG. 9) A. Action of Ghrelin Alone

[3] abbreviates: motilin 300 ng/kg iv after feed intake.
Setting [4] is: motilin 500 ng/kg iv after feed intake.
Where [5] appears, read: motilin 1,000 ng/kg iv after feed intake.
The mark [6] stands for this setting: motilin 3,000 ng/kg iv after feed intake.

In the case of `CC[C@H](C)[C@H](NC(=O)[C@@H]1CCCN1C(=O)[C@@H](NC(=O)[C@@H](N)Cc1ccccc1)C(C)C)C(=O)N[C@@H](Cc1ccccc1)C(=O)N[C@H](C(=O)N[C@@H](Cc1ccc(O)cc1)C(=O)NCC(=O)N[C@@H](CCC(=O)O)C(=O)N[C@@H](CC(C)C)C(=O)N[C@@H](CCC(N)=O)C(=O)N[C@@H](CCCNC(=N)N)C(=O)N[C@@H](CCSC)C(=O)N[C@@H](CCC(N)=O)C(=O)N[C@@H](CCC(=O)O)C(=O)N[C@@H](CCCCN)C(=O)N[C@@H](CCC(=O)O)C(=O)N[C@@H](CCCNC(=N)N)C(=O)N[C@@H](CC(N)=O)C(=O)N[C@@H](CCCCN)C(=O)NCC(=O)N[C@@H](CCC(N)=O)C(=O)O)[C@@H](C)O` [motilin], the “MI of postprandial motilin-induced contractions, vagotomized compared with sham-operated” value in assay [1] (motilin 50 ng/kg/min after intake of feed) was “significantly higher”. The “phase III-like contractions” value is given as “did not induce phase III-like contractions” in assay [1] (sham-operated, after intake of feed, motilin 50 ng/kg/min, 10-minute administration); “induced phase III-like contractions” in assay [2] (setting [5]); “induced phase III-like contractions” in assay [2] (setting [6]). The “phase III contractions” value in assay [1] (vagotomized, after intake of feed, motilin 50 ng/kg/min, 10-minute administration) is “induced strong phase III contractions”. Further, the “Motility Index (ΔMI)” value in assay [2] (setting [3]) is recorded as “About 4.9%”; in assay [2] (setting [4]) it was “About 6.8%”; in assay [2] (setting [5]), “About 49.5%”; in assay [2] (setting [6]), “about 48.3%”. The “contractions of the body of the stomach” value in assay [2] (setting [3]) and in assay [2] (setting [4]) was “did not induce contractions of the body of the stomach” each time.

For the origin of these results see patent US9682126B2, “Postprandial gastrokinetic agent” (ZERIA PHARMACEUTICAL CO., LTD., priority 2013, dated 2017).
